Measured values taken from patent publication US20240245607A1, “Microencapsulation of Active Agents” (Temple University-Of The Commonwealth System of Higher …, priority 2016, published 2024).
Counter-ions that a name gives are not always drawn. Like-named read-outs stand apart in the source and are kept apart here.

How the values were obtained:
[1] = IR spectra of encapsulated compounds in stearic acid microspheres (degradation); assay type: physicochemical
Method: Bitter taste stimuli are prepared in a similar manner, except at a pH of 8.0. Along with stearic acid, SOA is melted at ˜100° C., quinine HCl·7H2O is melted at ˜165° C., quinine HCl·2H2O is melted at 116° C., or n-propylthiouracil (PROP) is melted at ˜150° C. before addition to a rapidly stirred buffer solution. […] The quinine content of microspheres is measured by fluorescence emission or by absorbance in the ultra-violet region. SOA content of microspheres is measured by the anthrone reaction, and PROP and PTC content of microspheres is measured by UV absorption at 275 nm.
After drying, loaded microspheres are dissolved in a solvent such as acetonitrile or acetonitrile/HEPES, and the encapsulated compound is assayed by absorption spectroscopy, fluorescence emission, or infra-red spectroscopy. The melting point is then measured in order to identify the melting point range of the microspheres. If needed, these lipid microspheres could be embedded within pullulan-based films for long term storage. Stearic acid microspheres encapsulate 2,4-D or DCMU (Diuron) at a weight-to-weight ratio of approximately 15:I. In addition, the melting point of lipid microspheres is lowered to 38-40° C. for the controlled release of these compounds from microspheres. The melting temperature range varies from 8 to 10° C.

sweet taste = details: cited from earlier work

degradation of components by IR spectra [1] | SMILES | further results
 | O=[N+]([O-])c1ccc(O)c([N+](=O)[O-])c1 [2,4-dinitrophenol] | degradation by IR data ([1]; after encapsulation within stearic acid microspheres): not degraded
 | CN(C)C(=O)Nc1ccc(Cl)c(Cl)c1 [DCMU, diuron] | degradation by IR data [1]: undegraded
no components were graded | CCCc1cc(=O)[nH]c(=S)[nH]1 [PROP, n-propylthiouracil] | 
no components were graded | CC(=O)OC[C@H]1O[C@@](COC(C)=O)(O[C@H]2O[C@H](COC(C)=O)[C@@H](OC(C)=O)[C@H](OC(C)=O)[C@H]2OC(C)=O)[C@@H](OC(C)=O)[C@@H]1OC(C)=O [SOA, sucrose octaacetate] | 
no components were graded | C=C[C@H]1C[N@@]2CC[C@H]1C[C@H]2[C@H](O)c1ccnc2ccc(OC)cc12 [quinine, quinine HCl] | 
no components were graded | OC[C@H]1O[C@H](O[C@]2(CCl)O[C@H](CCl)[C@@H](O)[C@@H]2O)[C@H](O)[C@@H](O)[C@H]1Cl [sucralose] | sweetness compared with sucrose (sweet taste): approximately 600 times
